Data reported in patent US9765067B2, “Thiophen-2-yl-pyridin-2-yl-1H-pyrazole-4-carboxylic acid derivatives and the use thereof as soluble guanylate cyclase activators” (Novartis AG, priority 2014, dated 2017).

Molecular target: T1, soluble guanylate cyclase (human GUCYA3/GUCYB3) overexpressed in CHO cells (Homo sapiens, UniProt Q02108+Q02153)
T1 construct: expressed in transfected cells
T1 sequence (Q02108 1-690 partner): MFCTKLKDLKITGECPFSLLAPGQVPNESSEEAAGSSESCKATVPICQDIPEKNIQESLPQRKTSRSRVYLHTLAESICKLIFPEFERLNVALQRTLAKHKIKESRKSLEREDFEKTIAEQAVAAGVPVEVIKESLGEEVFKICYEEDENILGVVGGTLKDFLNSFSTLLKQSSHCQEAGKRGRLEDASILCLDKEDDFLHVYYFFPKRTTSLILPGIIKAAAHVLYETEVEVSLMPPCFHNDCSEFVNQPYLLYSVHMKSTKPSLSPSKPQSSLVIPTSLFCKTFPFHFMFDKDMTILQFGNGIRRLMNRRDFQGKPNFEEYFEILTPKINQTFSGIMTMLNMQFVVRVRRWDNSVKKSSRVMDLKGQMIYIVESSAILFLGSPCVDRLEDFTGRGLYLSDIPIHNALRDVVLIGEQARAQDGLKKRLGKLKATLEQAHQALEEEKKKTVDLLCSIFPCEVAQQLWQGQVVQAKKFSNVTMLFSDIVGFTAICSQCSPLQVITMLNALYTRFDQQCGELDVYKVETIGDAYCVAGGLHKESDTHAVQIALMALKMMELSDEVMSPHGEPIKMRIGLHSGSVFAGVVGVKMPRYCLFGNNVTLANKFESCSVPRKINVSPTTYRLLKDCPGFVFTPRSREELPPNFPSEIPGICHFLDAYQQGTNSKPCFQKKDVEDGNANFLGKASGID
T1 sequence (Q02153 1-619): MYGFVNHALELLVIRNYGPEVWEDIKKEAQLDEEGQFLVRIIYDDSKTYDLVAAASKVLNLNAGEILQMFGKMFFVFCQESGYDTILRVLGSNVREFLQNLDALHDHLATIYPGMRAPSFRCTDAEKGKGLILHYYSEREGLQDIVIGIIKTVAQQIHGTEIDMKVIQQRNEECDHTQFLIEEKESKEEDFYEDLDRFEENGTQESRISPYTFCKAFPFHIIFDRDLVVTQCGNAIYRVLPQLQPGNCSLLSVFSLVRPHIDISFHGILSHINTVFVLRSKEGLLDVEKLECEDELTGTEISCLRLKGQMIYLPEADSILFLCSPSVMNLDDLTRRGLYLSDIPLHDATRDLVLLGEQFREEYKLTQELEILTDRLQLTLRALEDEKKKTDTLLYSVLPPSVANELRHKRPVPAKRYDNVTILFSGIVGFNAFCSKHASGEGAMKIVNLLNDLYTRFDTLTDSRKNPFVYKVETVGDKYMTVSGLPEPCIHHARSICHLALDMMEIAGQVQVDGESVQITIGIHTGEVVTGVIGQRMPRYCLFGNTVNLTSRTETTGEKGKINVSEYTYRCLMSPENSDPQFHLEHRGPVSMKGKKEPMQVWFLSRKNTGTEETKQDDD
Experiment: CHO cellular assay (cGMP production, HTRF)
Format: cell-based
Settings: CHO K1 clone 8E10 overexpressing human sGC, Cisbio HTRF, 1 h room temperature, 1 mM IBMX, 20 uM ODQ, minimum quantification limit 0.5 nM
Summary of the method: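 Stable CHO K1 clone expressing human GUCYA3/GUCYB3. Compounds applied 1 h at room temperature in HBSS, 0.1% BSA, 1 mM IBMX, 20 uM ODQ, 0.5% DMSO. cGMP measured by HTRF and interpolated from a standard curve; EC50 from 4-parameter sigmoidal fit.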

Compound	EC50 [nM]
O=C(O)c1cnn(-c2cccc(-c3sccc3CCc3ccc(C4CCN(C(=O)C5CC5)CC4)cc3)n2)c1C(F)(F)F [Example 27, 1-(6-(3-(4-(1-(Cyclopropanecarbonyl)piperidin-4-yl)phenethyl)thiophen-2-yl)pyridin-2-yl)-5-(trifluoromethyl)-1H-pyrazole-4-carboxylic acid]	≤ 0.5
O=C(O)c1cnn(-c2cccc(-c3sccc3CNc3ccc(C4CCN(C(=O)C5CC5)CC4)cc3)n2)c1C(F)(F)F [Example 28, 1-(6-(3-(((4-(1-(Cyclopropanecarbonyl)piperidin-4-yl)phenyl)amino)methyl)thiophen-2-yl)pyridin-2-yl)-5-(trifluoromethyl)-1H-pyrazole-4-carboxylic acid]	4.5
Cc1cc(C2CCN(C3COC3)CC2)ccc1OCc1ccsc1-c1cccc(-n2ncc(C(=O)O)c2C(F)(F)F)n1 [Example 29, 1-(6-(3-((2-Methyl-4-(1-(oxetan-3-yl)piperidin-4-yl)phenoxy)methyl)thiophen-2-yl)pyridin-2-yl)-5-(trifluoromethyl)-1H-pyrazole-4-carboxylic acid]	67
Cc1cc(COc2ccc(C3CCN(C(=O)C4CC4)CC3)c(CO)c2)c(-c2cccc(-n3ncc(C(=O)O)c3C(F)(F)F)n2)s1 [Example 30, 1-(6-(3-((4-(1-(Cyclopropanecarbonyl)piperidin-4-yl)-3-(hydroxymethyl)phenoxy)methyl)-5-methylthiophen-2-yl)pyridin-2-yl)-5-(trifluoromethyl)-1H-pyrazole-4-carboxylic acid]	61
CCC(=O)N1CCC(c2ccc(COc3ccsc3-c3cccc(-n4ncc(C(=O)O)c4C(F)(F)F)n3)cc2)CC1 [Example 31, 1-(6-(3-((4-(1-Propionylpiperidin-4-yl)benzyl)oxy)thiophen-2-yl)pyridin-2-yl)-5-(trifluoromethyl)-1H-pyrazole-4-carboxylic acid]	13
Cc1cc(COc2ccc(C3CCN(C(=O)C4CC4)CC3)cc2C(F)(F)F)c(-c2cccc(-n3ncc(C(=O)O)c3C(F)(F)F)n2)s1 [Example 32, 1-(6-(3-((4-(1-(Cyclopropanecarbonyl)piperidin-4-yl)-2-(trifluoromethyl)phenoxy)methyl)-5-methylthiophen-2-yl)pyridin-2-yl)-5-(trifluoromethyl)-1H-pyrazole-4-carboxylic acid]	≤ 0.5

Results, then the compound that gave them:

EC50 [nM]	Compound
23	O=C(O)c1cnn(-c2cccc(-c3sccc3COc3ccc(C4CCN(C(=O)C5CC5)CC4)cc3C(F)(F)F)n2)c1C(F)(F)F [Example 33-1, 1-(6-(3-((4-(1-(Cyclopropanecarbonyl)piperidin-4-yl)-2-(trifluoromethyl)phenoxy)methyl)thiophen-2-yl)pyridin-2-yl)-5-(trifluoromethyl)-1H-pyrazole-4-carboxylic acid]
15	CCC(=O)N1CCC(c2ccc(OCc3ccsc3-c3cccc(-n4ncc(C(=O)O)c4C(F)(F)F)n3)c(C(F)(F)F)c2)CC1 [Example 33-2, (6-(3-((4-(1-Propionylpiperidin-4-yl)-2-(trifluoromethyl)phenoxy)methyl)thiophen-2-yl)pyridin-2-yl)-5-(trifluoromethyl)-1H-pyrazole-4-carboxylic acid]
96	Cc1cc(C2CCN(C(=O)C3CC3)CC2)ccc1OCc1cc(C(C)C)sc1-c1cccc(-n2ncc(C(=O)O)c2C(F)(F)F)n1 [Example 35-1, 1-(6-(3-((4-(1-(Cyclopropanecarbonyl)piperidin-4-yl)-2-methylphenoxy)methyl)-5-isopropylthiophen-2-yl)pyridin-2-yl)-5-(trifluoromethyl)-1H-pyrazole-4-carboxylic acid]
678	CCC(=O)N1CCC(c2ccc(OCc3cc(C(C)C)sc3-c3cccc(-n4ncc(C(=O)O)c4C(F)(F)F)n3)c(C)c2)CC1 [Example 35-2, 1-(6-(5-Isopropyl-3-((2-methyl-4-(1-propionylpiperidin-4-yl)phenoxy)methyl)thiophen-2-yl)pyridin-2-yl)-5-(trifluoromethyl)-1H-pyrazole-4-carboxylic acid]
195	CCCc1cc(COc2ccc(C3CCN(C(=O)CC)CC3)cc2C)c(-c2cccc(-n3ncc(C(=O)O)c3C(F)(F)F)n2)s1 [Example 35-3, 1-(6-(3-((2-Methyl-4-(1-propionylpiperidin-4-yl)phenoxy)methyl)-5-propylthiophen-2-yl)pyridin-2-yl)-5-(trifluoromethyl)-1H-pyrazole-4-carboxylic acid]
2	Cc1cc(COc2ccc(C3CCN(C(=O)C4CC4)CC3)c(C)c2)c(-c2cccc(-n3ncc(C(=O)O)c3C(F)(F)F)n2)s1 [Example 35-4, 1-(6-(3-((4-(1-(Cyclopropanecarbonyl)piperidin-4-yl)-3-methylphenoxy)methyl)-5-methylthiophen-2-yl)pyridin-2-yl)-5-(trifluoromethyl)-1H-pyrazole-4-carboxylic acid]
3	Cc1cc(OCc2ccsc2-c2cccc(-n3ncc(C(=O)O)c3C(F)(F)F)n2)ccc1C1CCN(C(=O)C2CC2)CC1 [Example 35-5, 1-(6-(3-((4-(1-(Cyclopropanecarbonyl)piperidin-4-yl)-3-methylphenoxy)methyl)thiophen-2-yl)pyridin-2-yl)-5-(trifluoromethyl)-1H-pyrazole-4-carboxylic acid]
≤ 0.5	CCc1cc(OCc2cc(C)sc2-c2cccc(-n3ncc(C(=O)O)c3C(F)(F)F)n2)ccc1C1CCN(C(=O)N(C)C)CC1 [Example 35-7, 1-(6-(3-((4-(1-(Dimethylcarbamoyl)piperidin-4-yl)-3-ethylphenoxy)methyl)-5-methylthiophen-2-yl)pyridin-2-yl)-5-(trifluoromethyl)-1H-pyrazole-4-carboxylic acid]
≤ 0.5	CCc1cc(OCc2cc(C)sc2-c2cccc(-n3ncc(C(=O)O)c3C)n2)ccc1C1CCN(C(=O)N(C)C)CC1 [Example 35-8, 1-(6-(3-((4-(1-(Dimethylcarbamoyl)piperidin-4-yl)-3-ethylphenoxy)methyl)-5-methylthiophen-2-yl)pyridin-2-yl)-5-methyl-1H-pyrazole-4-carboxylic acid]
≤ 0.5	CCc1cc(OCc2cc(C)sc2-c2cccc(-n3ncc(C(=O)O)c3CC)n2)ccc1C1CCN(C(=O)C2CC2)CC1 [Example 35-9, 1-(6-(3-((4-(1-(Cyclopropanecarbonyl)piperidin-4-yl)-3-ethylphenoxy)methyl)-5-methylthiophen-2-yl)pyridin-2-yl)-5-ethyl-1H-pyrazole-4-carboxylic acid]
≤ 0.5	CCc1c(C(=O)O)cnn1-c1cccc(-c2sc(C)cc2COc2ccc(C3CCN(C(=O)C4CC4)CC3)cc2C)n1 [Example 35-10, 1-(6-(3-((4-(1-(Cyclopropanecarbonyl)piperidin-4-yl)-2-methylphenoxy)methyl)-5-methylthiophen-2-yl)pyridin-2-yl)-5-ethyl-1H-pyrazole-4-carboxylic acid]
1	Cc1cc(COc2ccc(C3CCN(C(=O)C4CC4)CC3)c(C3CC3)c2)c(-c2cccc(-n3ncc(C(=O)O)c3C(F)(F)F)n2)s1 [Example 35-12, 1-(6-(3-((4-(1-(Cyclopropanecarbonyl)piperidin-4-yl)-3-cyclopropylphenoxy)methyl)-5-methylthiophen-2-yl)pyridin-2-yl)-5-(trifluoromethyl)-1H-pyrazole-4-carboxylic acid]
1	CCc1c(C2CCN(C(=O)C3CC3)CC2)ccc(OCc2cc(C)sc2-c2cccc(-n3ncc(C(=O)O)c3C(F)(F)F)n2)c1F [Example 35-13, 1-(6-(3-((4-(1-(Cyclopropanecarbonyl)piperidin-4-y1)-3-ethyl-2-fluorophenoxy)methyl)-5-methylthiophen-2-yl)pyridin-2-yl)-5-(trifluoromethyl)-1H-pyrazole-4-carboxylic acid]
